Data as given in ChEMBL document CHEMBL3132810, “Novel benzofuranchromone and coumarin derivatives: synthesis and biological activity in K562 human leukemia cells” (Medchemcomm, 2013).
Active and inactive are the calls of the source. No cut-off for these calls is given here.

Legend:
K562 [1] = experiment: Cell cycle arrest in human K562 cells assessed as accumulation at S phase at 50 uM after 48 hrs by propidium iodide staining-based FACS -Calibur flow cytometry; assay type: functional
K562 [2] = experiment: Anticancer activity against human K562 cells assessed as growth inhibition; assay type: functional, cell-based
K562 [3] = experiment: Induction of apoptosis in human K562 cells at 50 uM after 72 hrs; assay type: functional, cell-based
K562 [4] = experiment: Induction of apoptosis in human K562 cells at 100 uM after 72 hrs; assay type: functional, cell-based
K562 [5] = experiment: Induction of apoptosis in human K562 cells at 50 uM after 48 hrs; assay type: functional
K562 [6] = experiment: Cell cycle arrest in human K562 cells assessed as slight accumulation at G1 phase at 50 uM after 48 hrs by propidium iodide staining-based FACS -Calibur flow cytometry; assay type: functional
K562 [7] = experiment: Cell cycle arrest in human K562 cells assessed as accumulation at G2 phase at 50 uM after 48 hrs by propidium iodide staining-based FACS -Calibur flow cytometry; assay type: functional

SMILES	Activity (K562 [1])	Activity (K562 [5])	further results
O=C1/C(=C/c2coc3ccc(F)cc3c2=O)Oc2ccccc21	Active	–	–
COc1ccc(-c2cc(=O)c3cc(OC)c(OC)c(OC)c3o2)cc1O	–	–	IC50 (K562 [2]): 40 µM
COc1ccc(/C=C2\Oc3cc(C)ccc3C2=O)cc1	–	–	Activity (K562 [3]): Active; Activity (K562 [4]): Active
Cc1ccc2occ(/C=C3\Oc4ccccc4C3=O)c(=O)c2c1	Active	–	–
Cc1ccc2c(c1)O/C(=C\c1coc3ccc(F)cc3c1=O)C2=O	Active	–	–
COc1ccc2c(/C=C3\Oc4cc(C)ccc4C3=O)cc(=O)oc2c1	–	24%	Activity (K562 [3]): Active; Activity (K562 [4]): Active; Activity (K562 [6]): Active
O=C1/C(=C/c2coc3ccc(Cl)cc3c2=O)Oc2cc3ccccc3cc21	–	17%	–
O=C1/C(=C/c2coc3ccc(Cl)cc3c2=O)Oc2ccccc21	63%	–	–
COc1ccc2c(=O)c(/C=C3\Oc4ccccc4C3=O)coc2c1	–	17%	–
O=C1/C(=C/c2coc3ccccc3c2=O)Oc2ccccc21	–	17%	–
COc1ccc2c(C=O)cc(=O)oc2c1	–	–	Activity (K562 [3]): Active; Activity (K562 [4]): Active
Cc1ccc2c(c1)O/C(=C\c1coc3ccc(Cl)cc3c1=O)C2=O	Active	–	–
O=C1/C(=C/c2coc3ccccc3c2=O)Oc2cc3ccccc3cc21	–	17%	–
COc1ccc2c(/C=C3\Oc4cc5ccccc5cc4C3=O)cc(=O)oc2c1	–	24%	Activity (K562 [7]): 46%
Cc1ccc2c(c1)O/C(=C\c1coc3cc(Cl)ccc3c1=O)C2=O	Active	–	–
COc1ccc(/C=C2\Oc3c(cc(OC)c(OC)c3OC)C2=O)cc1O	–	–	IC50 (K562 [2]): 50 µM
COc1cccc2occ(/C=C3\Oc4cc5ccccc5cc4C3=O)c(=O)c12	–	17%	Activity (K562 [6]): Active
Cc1ccc2c(c1)O/C(=C\c1coc3ccc(C)cc3c1=O)C2=O	–	24%	Activity (K562 [6]): 72%
Cc1cc2occ(/C=C3\Oc4cc5ccccc5cc4C3=O)c(=O)c2cc1C	–	17%	Activity (K562 [6]): Active
Cc1ccc2c(c1)O/C(=C\c1coc3ccccc3c1=O)C2=O	Active	–	–
